System: SEM cells
Test: cell viability relative to DMSO control; higher = less cytotoxic
Conditions: 48 h
Summary of the method: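 Viability, reported as a per-plate percentage of DMSO wells with cell-free wells as background, came from CellTiter-Glo One luminescence. Reading took place after 48 h at 37°C. Before that, NOMO1 or SEM (500 cells/well) or P12-Ichikawa (1000 cells/well) leukemia cells, adapted for at least four passages in each medium, were seeded in 1536-well plates (5 μl) and pin-dosed with library compounds in DMSO, 47 μM to 0.79 nM over 11 threefold points.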

[1] = HPLM + 10% dialyzed FBS, 0.000781 µM
[2] = HPLM + 10% dialyzed FBS, 0.00234 µM
[3] = HPLM + 10% dialyzed FBS, 0.00702 µM
[4] = HPLM + 10% dialyzed FBS, 0.0211 µM
[5] = HPLM + 10% dialyzed FBS, 0.0632 µM
[6] = HPLM + 10% dialyzed FBS, 0.19 µM
[7] = HPLM + 10% dialyzed FBS, 0.569 µM
[8] = HPLM + 10% dialyzed FBS, 1.71 µM
[9] = HPLM + 10% dialyzed FBS, 5.12 µM
[10] = HPLM + 10% dialyzed FBS, 15.4 µM
[11] = HPLM + 10% dialyzed FBS, 46.1 µM
[12] = RPMI 5 mM glucose + 10% FBS, 0.000781 µM
[13] = RPMI 5 mM glucose + 10% FBS, 0.00234 µM
[14] = RPMI 5 mM glucose + 10% FBS, 0.00702 µM
[15] = RPMI 5 mM glucose + 10% FBS, 0.0211 µM
[16] = RPMI 5 mM glucose + 10% FBS, 0.0632 µM
[17] = RPMI 5 mM glucose + 10% FBS, 0.19 µM
[18] = RPMI 5 mM glucose + 10% FBS, 0.569 µM
[19] = RPMI 5 mM glucose + 10% FBS, 1.71 µM
[20] = RPMI 5 mM glucose + 10% FBS, 5.12 µM
[21] = RPMI 5 mM glucose + 10% FBS, 15.4 µM
[22] = RPMI 5 mM glucose + 10% FBS, 46.1 µM
[23] = RPMI 5 mM glucose + 10% dialyzed FBS, 0.000781 µM
[24] = RPMI 5 mM glucose + 10% dialyzed FBS, 0.00234 µM
[25] = RPMI 5 mM glucose + 10% dialyzed FBS, 0.00702 µM
[26] = RPMI 5 mM glucose + 10% dialyzed FBS, 0.0211 µM
[27] = RPMI 5 mM glucose + 10% dialyzed FBS, 0.0632 µM
[28] = RPMI 5 mM glucose + 10% dialyzed FBS, 0.19 µM
[29] = RPMI 5 mM glucose + 10% dialyzed FBS, 0.569 µM
[30] = RPMI 5 mM glucose + 10% dialyzed FBS, 1.71 µM
[31] = RPMI 5 mM glucose + 10% dialyzed FBS, 5.12 µM
[32] = RPMI 5 mM glucose + 10% dialyzed FBS, 15.4 µM
[33] = RPMI 5 mM glucose + 10% dialyzed FBS, 46.1 µM

Row | Structure (SMILES) | cell viability [1] [%] | cell viability [2] [%] | cell viability [3] [%] | cell viability [4] [%] | cell viability [5] [%] | cell viability [6] [%] | cell viability [7] [%] | cell viability [8] [%] | cell viability [9] [%] | cell viability [10] [%] | cell viability [11] [%] | cell viability [12] [%] | cell viability [13] [%] | cell viability [14] [%] | cell viability [15] [%] | cell viability [16] [%] | cell viability [17] [%] | cell viability [18] [%] | cell viability [19] [%] | cell viability [20] [%] | cell viability [21] [%] | cell viability [22] [%] | cell viability [23] [%] | cell viability [24] [%] | cell viability [25] [%] | cell viability [26] [%] | cell viability [27] [%] | cell viability [28] [%] | cell viability [29] [%] | cell viability [30] [%] | cell viability [31] [%] | cell viability [32] [%] | cell viability [33] [%]
1 | C1Cc2[nH]nc(-c3nn[nH]n3)c2C1 | 91.4 | 101 | 113 | 114 | 107 | 104 | 128 | 128 | 120 | 116 | 100 | 112 | 122 | 119 | 128 | 125 | 137 | 129 | 163 | 136 | 145 | 140 | 115 | 129 | 125 | 127 | 141 | 162 | 145 | 141 | 149 | 144 | 162
2 | O=C1\C=C(/OC2=C1C=CC=C2C3=CC=CC=C3)N4CCOCC4 | 45.8 | 90.5 | 89.2 | 80.6 | 65.1 | 89.3 | 90.3 | 59 | 87.3 | 92.3 | 58.3 | 71.7 | 114 | 111 | 115 | 75.6 | 91.8 | 110 | 74 | 114 | 94.6 | 79.6 | 48.9 | 90 | 88.3 | 94.4 | 66.7 | 80 | 86.5 | 61.9 | 101 | 84.7 | 62.7
3 | CO/N=C(/C(=O)N[C@@H]1C(=O)N2C(C(=O)O)=C(Cn3ccc(=N)n3CCO)CS[C@H]12)c1csc(N)n1 | 88.8 | 90.5 | 115 | 108 | 112 | 122 | 97.6 | 117 | 121 | 132 | 127 | 123 | 95 | 130 | 136 | 130 | 140 | 125 | 147 | 122 | 151 | 138 | – | – | – | – | – | – | – | – | – | – | –
4 | CC(C)C[C@H](CN)CC(=O)O | 110 | 116 | 105 | 111 | 97.6 | 98.8 | 115 | 102 | 119 | 37.9 | 93.9 | 102 | 102 | 98.7 | 105 | 93.9 | 88.7 | 104 | 113 | 103 | 41.2 | 92.1 | 101 | 105 | 107 | 103 | 110 | 102 | 113 | 109 | 97.1 | 38.8 | 110
5 | CCOC(=O)C/1=C(C)/NC(=S)NC1C2=CC=CC(=C2)O (stereo not given) | 110 | 99.3 | 103 | 111 | 68.2 | 24.3 | 22.9 | 22.4 | 7.01 | 16 | 15.2 | 89.4 | 104 | 118 | 109 | 109 | 20.5 | 15.2 | 12 | 6.19 | 7.56 | 3.89 | 100 | 100 | 108 | 106 | 101 | 47.2 | 21.2 | 20.8 | 5.56 | 14.3 | 8.93
6 | COC[C@H](NC(=O)c1cnc(C)s1)C(=O)N[C@@H](COC)C(=O)N[C@@H](Cc1ccccc1)C(=O)[C@@]1(C)CO1 | 116 | 97.1 | 110 | 121 | 92.3 | 5.47 | 3.74 | 3.51 | 2.04 | 1.53 | 2.48 | 102 | 91.6 | 111 | 120 | 82 | 6.81 | 3.82 | 3.59 | 2.31 | 1.56 | 2.78 | 81.9 | 87.7 | 108 | 101 | 70.3 | 5.77 | 3.78 | 2.78 | 1.96 | 1.46 | 2.4
7 | COc1ccc(/C=C\c2cc(OC)c(OC)c(OC)c2)cc1O | 27.3 | 26.8 | 29.2 | 27.9 | 19.5 | 15.9 | 16.8 | 12.7 | 8.59 | 6.14 | 3.96 | 20 | 22.4 | 23 | 15.1 | 8.98 | 7.29 | 7.3 | 5.54 | 5.21 | 3.08 | 2.03 | 23.3 | 28.5 | 33.5 | 25.2 | 12.6 | 10.5 | 9.81 | 7.46 | 6.37 | 4.4 | 2.55

Reference: the supplement of paper PMC11451515
